In article PMC6701155, “New perspectives on the plant PARP family: Arabidopsis PARP3 is inactive, and PARP1 exhibits predominant poly (ADP-ribose) polymerase activity in response to DNA damage” (BMC Plant Biology, 2019):

Assays:
AtPARP1 (TRXH-AtPARP1) = target: T1, AtPARP1 (TRXH-AtPARP1) (Arabidopsis thaliana, UniProt Q9ZP54); experiment: auto-PARylation assay, immunoblot with anti-pan-ADPR reagent; type: biochemical; details: 20 mM 3-AB, 1 mM NAD+, 500 nM broken DNA, 25 °C, pH 7.5, Mg2+
T1 construct: gene PARP1; full-length coding region in pET32a(+), N-terminal thioredoxin-His (TRXH) tag kept, E. coli Origami (DE3), nickel-purified
T1 sequence (Q9ZP54 1-983): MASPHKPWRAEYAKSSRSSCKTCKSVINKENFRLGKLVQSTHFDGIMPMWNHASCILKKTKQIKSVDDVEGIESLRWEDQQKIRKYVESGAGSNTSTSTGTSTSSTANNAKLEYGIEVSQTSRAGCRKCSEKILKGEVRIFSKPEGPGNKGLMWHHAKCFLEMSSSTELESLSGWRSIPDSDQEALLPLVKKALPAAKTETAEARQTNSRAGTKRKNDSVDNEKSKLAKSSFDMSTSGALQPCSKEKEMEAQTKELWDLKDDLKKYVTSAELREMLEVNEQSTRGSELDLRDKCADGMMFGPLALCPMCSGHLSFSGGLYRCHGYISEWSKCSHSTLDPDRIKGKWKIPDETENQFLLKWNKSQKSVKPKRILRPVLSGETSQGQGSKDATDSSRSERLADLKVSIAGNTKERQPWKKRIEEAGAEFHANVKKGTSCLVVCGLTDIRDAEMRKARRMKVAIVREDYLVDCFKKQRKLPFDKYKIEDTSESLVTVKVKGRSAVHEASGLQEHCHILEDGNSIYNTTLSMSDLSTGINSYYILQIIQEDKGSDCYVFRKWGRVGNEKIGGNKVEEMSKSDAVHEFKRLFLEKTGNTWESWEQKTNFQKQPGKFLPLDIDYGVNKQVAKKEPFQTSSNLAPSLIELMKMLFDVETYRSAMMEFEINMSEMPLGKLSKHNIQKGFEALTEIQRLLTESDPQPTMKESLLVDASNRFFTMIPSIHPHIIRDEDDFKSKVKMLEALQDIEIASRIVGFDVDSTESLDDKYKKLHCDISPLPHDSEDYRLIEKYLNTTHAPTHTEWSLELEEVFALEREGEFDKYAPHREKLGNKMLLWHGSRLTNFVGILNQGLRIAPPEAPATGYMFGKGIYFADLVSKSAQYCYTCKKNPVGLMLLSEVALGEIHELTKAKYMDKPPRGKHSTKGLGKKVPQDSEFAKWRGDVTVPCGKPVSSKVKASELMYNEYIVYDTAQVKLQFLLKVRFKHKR

AtPARP2 (TRXH-AtPARP2) = target: T2, AtPARP2 (TRXH-AtPARP2) (Arabidopsis thaliana, UniProt Q11207); experiment: as above; type: biochemical; details: 1 mM NAD+, 500 nM broken DNA, 25 °C, pH 7.5, Mg2+
T2 construct: gene PARP2; an MBP/MBD fusion was also tested
T2 sequence (Q11207 whole entry, the tested form may be a part): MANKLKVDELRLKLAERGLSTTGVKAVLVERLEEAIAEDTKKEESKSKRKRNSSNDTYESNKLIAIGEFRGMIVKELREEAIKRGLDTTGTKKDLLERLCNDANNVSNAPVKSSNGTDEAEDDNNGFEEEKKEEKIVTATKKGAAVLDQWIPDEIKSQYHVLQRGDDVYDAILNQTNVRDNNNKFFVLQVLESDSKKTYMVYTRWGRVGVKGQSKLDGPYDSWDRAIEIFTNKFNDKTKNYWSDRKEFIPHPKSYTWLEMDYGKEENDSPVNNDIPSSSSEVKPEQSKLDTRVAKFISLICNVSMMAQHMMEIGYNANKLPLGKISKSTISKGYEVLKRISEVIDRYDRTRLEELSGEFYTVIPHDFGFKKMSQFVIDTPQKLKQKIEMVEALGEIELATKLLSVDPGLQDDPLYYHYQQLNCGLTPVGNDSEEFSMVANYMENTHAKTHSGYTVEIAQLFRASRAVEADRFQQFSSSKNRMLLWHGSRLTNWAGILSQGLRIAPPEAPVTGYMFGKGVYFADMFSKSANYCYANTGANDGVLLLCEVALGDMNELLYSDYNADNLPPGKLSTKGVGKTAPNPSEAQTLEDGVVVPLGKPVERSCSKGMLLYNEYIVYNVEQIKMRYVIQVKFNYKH

SMILES	auto-PARylation assay, immunoblot with anti-pan-ADPR reagent (AtPARP1 (TRXH-AtPARP1))	auto-PARylation assay, immunoblot with anti-pan-ADPR reagent (AtPARP2 (TRXH-AtPARP2))
NC(=O)c1cccc(N)c1 [3-AB]	The signal was abolished by the PARP inhibitor 3-AB	
NC(=O)c1ccc[n+]([C@@H]2O[C@H](COP(=O)(O)OP(=O)(O)OC[C@H]3O[C@@H](n4cnc5c(N)ncnc54)[C@H](O)[C@@H]3O)[C@@H](O)[C@H]2O)c1 [NAD^+]		AtPARP2 produced shorter PAR chains than AtPARP1 within the same incubation time periods
